Test results from PMC6858373 (Scientific Reports, 2019).
“And” between values parts separate entries of the source, which are not always exact repeats. Equal values may be shown once. Read-outs that look alike come from different tables or passages of the source.

Key:
Clone V cells = experiment: CellTiter Blue (CTB) cell viability counter-screen; conditions: CC_NCI screening, normalized to on-plate 0.3% DMSO controls; for Toxicity Assay % Fluor: CTB cell viability fluorescence; for Toxicity Assay Z-score: CTB cell viability
[1] = molecular target: T1, FGF14:Nav1.6 C-tail complex (Homo sapiens, UniProt Q92915+Q9UQD0); experiment: Split-luciferase complementation assay (LCA) in Clone V double stable HEK293 cells; assay type: cell-based; conditions: for Split Luciferase Assay Z-score Set 1 / Split Luciferase Assay Z-score Set 2: normalized to on-plate 0.3% DMSO controls
T1 construct: polymerase chain reaction (PCR) amplification of the FGF14 open reading frame (nt 1–855); C-terminal fragment of Nav1.6 (amino acids 1763–1976) fused with CD4ΔC-tail (amino acids 1–395); expressed in transfected cells

[2] = molecular target: full-length P. pyralis luciferase (Photinus pyralis, UniProt P08659, K549A/L550V/N119G/N50D/S548I); assay type: cell-based; conditions: CC_NCI screening, normalized to on-plate 0.3% DMSO controls; for Luciferase Assay % Lum: full-length luciferase counter-screen luminescence; for Luciferase Assay Z-score: full-length luciferase counter-screen
[3] = CC_NCI screening, LCA luminescence, biological replicate Set 1, normalized to on-plate 0.3% DMSO controls (n=16 per plate)
[4] = CC_NCI screening, LCA luminescence, biological replicate Set 2, normalized to on-plate 0.3% DMSO controls (n=16 per plate)
[5] = CC_NCI screening, LCA, biological replicate Set 1
[6] = CC_NCI screening, LCA, biological replicate Set 2
[7] = CC_NCI screening, average of Set 1 and Set 2, normalized to 0.3% DMSO controls

Chain of full-length P. pyralis luciferase (P08659 whole entry N50D/N119G/S548I/K549A/L550V, looked up): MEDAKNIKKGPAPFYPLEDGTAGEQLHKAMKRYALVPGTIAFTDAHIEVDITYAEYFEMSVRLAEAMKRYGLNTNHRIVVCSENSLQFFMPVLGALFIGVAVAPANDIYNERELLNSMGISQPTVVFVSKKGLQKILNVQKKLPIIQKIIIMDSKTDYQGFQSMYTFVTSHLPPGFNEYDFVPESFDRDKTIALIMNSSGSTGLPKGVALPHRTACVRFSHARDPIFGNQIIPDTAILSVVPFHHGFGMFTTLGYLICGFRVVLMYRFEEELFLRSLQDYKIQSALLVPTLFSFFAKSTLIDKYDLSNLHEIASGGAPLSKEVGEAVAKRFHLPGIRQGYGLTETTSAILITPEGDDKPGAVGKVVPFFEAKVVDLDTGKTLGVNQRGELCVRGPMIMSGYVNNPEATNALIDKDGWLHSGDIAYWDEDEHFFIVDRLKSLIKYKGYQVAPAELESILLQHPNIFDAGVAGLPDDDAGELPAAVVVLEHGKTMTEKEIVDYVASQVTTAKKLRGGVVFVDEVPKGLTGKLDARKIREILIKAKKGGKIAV
T1 sequence (Q92915 1-252 isoform Q92915-2): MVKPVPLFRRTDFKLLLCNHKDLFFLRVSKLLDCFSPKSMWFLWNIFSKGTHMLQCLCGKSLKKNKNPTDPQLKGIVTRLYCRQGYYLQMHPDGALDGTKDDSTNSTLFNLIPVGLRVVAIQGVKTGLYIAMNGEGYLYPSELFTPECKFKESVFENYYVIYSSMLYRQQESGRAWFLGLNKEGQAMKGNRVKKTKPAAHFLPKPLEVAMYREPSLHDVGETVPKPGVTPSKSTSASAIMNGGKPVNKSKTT
T1 sequence (Q9UQD0 1763-1976 limits assumed): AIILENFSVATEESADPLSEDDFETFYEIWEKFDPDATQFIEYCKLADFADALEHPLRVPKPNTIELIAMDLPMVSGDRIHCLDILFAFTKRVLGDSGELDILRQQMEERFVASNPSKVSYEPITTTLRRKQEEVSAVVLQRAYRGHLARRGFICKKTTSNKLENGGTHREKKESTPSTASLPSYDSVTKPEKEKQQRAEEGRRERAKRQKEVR

| Structure (SMILES) | Toxicity Assay % Fluor (Clone V cells) | Toxicity Assay Z-score (Clone V cells) | Split Luciferase Assay % Lum Set 1 [1, 3] | Split Luciferase Assay %Lum Set 2 [1, 4] | Split Luciferase Assay Z-score Set 1 [1, 5] | Split Luciferase Assay Z-score Set 2 [1, 6] | Split Luciferase Assay %Lum Avg [1, 7] | Luciferase Assay % Lum [2] | Luciferase Assay Z-score [2] | also measured |
| --- | --- | --- | --- | --- | --- | --- | --- | --- | --- | --- |
| O=C(c1cc(Cc2n[nH]c(=O)c3ccccc23)ccc1F)N1CCN(C(=O)C2CC2)CC1 [AZD 2281] | 93.24% | -0.94 | 117.73% | 92.59% | 1.43 | -0.60 | 105.16% | 105.07% | 0.65 |  |
| Cc1c(NC(=O)OC[C@@H]2COCCN2)cn2ncnc(Nc3ccc4c(cnn4Cc4cccc(F)c4)c3)c12 [BMS-599626] | 101.94% | 0.27 | 38.37% | 50.98% | -4.98 | -3.99 | 44.68% | 83.05% | -2.17 |  |
| CO[C@H]1C(=O)[C@]2(C)[C@@H](OC)C[C@H]3OC[C@@]3(OC(C)=O)[C@H]2[C@H](OC(=O)c2ccccc2)[C@]2(O)C[C@H](OC(=O)[C@H](O)[C@@H](NC(=O)OC(C)(C)C)c3ccccc3)C(C)=C1C2(C)C [Cabazitaxel] | 82.13% | -2.50 | 101.43% | 112.35% | 0.12 | 1.01 | 106.89% | 90.38% | -1.23 |  |
| O=C(CCCCCCC(=O)Nc1ccccc1)NO [Vorinostat] | 101.32% | 0.19 | 88.38% | 88.43% | -0.94 | -0.94 | 88.40% | 97.95% | -0.26 |  |
| COc1cc2c(Nc3ccc(Br)cc3F)ncnc2cc1OCC1CCN(C)CC1 [Vandetanib] | 97.46% | -0.36 | 89.47% | 115.47% | -0.85 | 1.26 | 102.47% | 80.83% | -2.46 |  |
| C=C1C[C@@H]2[C@H](CC[C@]3(C)C(=O)CC[C@@H]23)[C@@]2(C)C=CC(=O)C=C12 [Exemestane] | 91.81% | -1.14 |  |  | 0.73 | -0.26 |  | 90.38% | -1.23 | Split Luciferase Assay % Lum Set 1 [1]: 109.04%; Split Luciferase Assay %Lum Avg [1]: 102.89%; Split Luciferase Assay %Lum Set 2 [1]: 96.75% |
| C[C@]12CC[C@@H]3c4ccc(O)cc4C[C@@H](CCCCCCCCC[S+]([O-])CCCC(F)(F)C(F)(F)F)[C@H]3[C@@H]1CC[C@@H]2O (stereo partly drawn) [Fulvestrant] | 83.63% | -2.29 | 94.90% | 91.55% | -0.41 | -0.69 | 93.23% | 83.45% | -2.12 |  |
| CN(C)C/C=C/C(=O)Nc1cc2c(Nc3ccc(F)c(Cl)c3)ncnc2cc1O[C@H]1CCOC1 [BIBW2992] | 100.79% | 0.11 | 70.99% | 94.67% | -2.34 | -0.43 | 82.83% | 76.41% | -3.02 |  |
| Cc1ccc(F)c(NC(=O)Nc2ccc(-c3cccc4[nH]nc(N)c34)cc2)c1 [ABT-869] | 87.41% | -1.76 | 14.46% | 21.85% | -6.91 | -6.36 | 18.15% | 60.04% | -5.12 |  |
| Cc1nc2c(O)cccc2c(=O)[nH]1 [NU 1025] |  |  |  |  |  |  |  |  |  | Toxicity Assay % Fluor (CTB cell viability fluorescence) (Clone V cells): 111.16%; Toxicity Assay Z-score (CTB cell viability) (Clone V cells): 1.56; Split Luciferase Assay Z-score Set 1 ([1]; CC_NCI screening, biological replicate Set 1): -0.32; Split Luciferase Assay % Lum Set 1 ([1]; CC_NCI screening, biological replicate Set 1, normalized to on-plate 0.3% DMSO controls (n=16 per plate)): 95.99%; Split Luciferase Assay Z-score Set 2 ([1]; CC_NCI screening, biological replicate Set 2): -4.33; Split Luciferase Assay %Lum Set 2 ([1]; CC_NCI screening, biological replicate Set 2, normalized to on-plate 0.3% DMSO controls (n=16 per plate)): 46.81%; Split Luciferase Assay %Lum Avg ([1]; average of Set 1 and Set 2, normalized to 0.3% DMSO controls): 71.40%; Luciferase Assay % Lum (full-length luciferase counter-screen) [2]: 89.72%; Luciferase Assay Z-score (full-length luciferase counter-screen) [2]: -1.32 |
| O=P(O)(O)C(O)(Cn1ccnc1)P(=O)(O)O [Zoledronic acid] | 89.11% | -1.52 | 100.34% | 119.64% | 0.03 | 1.60 | 109.99% | 94.25% | -0.74 |  |
| Cn1cnc2c(F)c(Nc3ccc(Br)cc3Cl)c(C(=O)NOCCO)cc21 [AZD 6244] | 108.13% | 1.14 | 100.34% | 90.51% | 0.03 | -0.77 | 95.42% | 96.05% | -0.51 |  |
| C[C@]12O[C@H](C[C@]1(O)CO)n1c3ccccc3c3c4c(c5c6ccccc6n2c5c31)CNC4=O [Lestaurtinib, reference compound] | 90.16% |  | 50.33% | 40.57% | -4.01 | -4.84 | 45.45% | 87.58% | -1.59 | Z-score (LCA primary screening) ([1]; 30 µM, 384-well, average of primary screening (n = 2), vs on-plate 0.3% DMSO): −4.42; dose-response behavior of repurchased compounds ([1]; 10-point dose response 0.25-50 µM, Clone V cells): purely inhibitory effects; IC50 ([1]; IC50 (µM), estimated, 8-point dose response 0.25-30 µM, n = 4 per concentration, library compounds): 1.22 µM; IMin (% Luminescence) ([1]; antagonists, Clone V cells, 384-well, normalized to DMSO): 45.45 % Luminescence; action toward the FGF14:Nav1.6 C-tail interaction ([1]; dose-dependency validation using fresh compound samples): acted as antagonists; IC50 ([1]; in-cell IC50, repurchased compounds, 10-point dose response 0.25-50 µM, n = 8 per concentration, Clone V cells, 384-well): 0.95 µM |
| Nc1cccc2c1CN(C1CCC(=O)NC1=O)C2=O (stereo not drawn) [Lenalidomide] | 84.86% and 92.38% |  | 144.91% and 107.95% | 144.60% and 129.00% | 3.63 and 0.64 | 3.63 and 2.36 | 144.76% and 118.47% | 104.96% and 92.77% |  |  |
| CCCCCCCCCCCCCCCCCCOP(=O)([O-])OC1CC[N+](C)(C)CC1 [PERIFOSINE] | 83.07% | -2.37 | 86.21% | 89.47% | -1.11 | -0.86 | 87.84% | 103.68% | 0.47 |  |
| CNC(=O)c1cc(Oc2ccc(NC(=O)Nc3ccc(Cl)c(C(F)(F)F)c3)c(F)c2)ccn1 [Regorafenib] | 88.66% | -1.59 | 43.81% | 47.85% | -4.54 | -4.24 | 45.83% | 83.68% | -2.09 |  |
| C#CCC(Cc1cnc2nc(N)nc(N)c2n1)c1ccc(C(=O)N[C@@H](CCC(=O)O)C(=O)O)cc1 (stereo partly drawn) [Pralatrexate] | 96.60% | -0.47 | 117.73% | 106.11% | 1.43 | 0.50 | 111.92% | 103.37% | 0.43 |  |
